These are literature values, as cited in US20060233841A1, “Implantable gel compositions and method of manufacture” (priority 1999, published 2006).

For the data set the following is noted: reported value; solubility values considered to be determined at 20° C.

`CC(=O)OCC(COC(C)=O)OC(C)=O` [triacetin]: the solubility in water is 7.17 grams in 100 ml of water.
